Each compound was assayed on HIV-1 viral population of patient sample 848 (assay: Resistance test vector phenotypic drug susceptibility assay of patient sample 848). Details: mixed viral population in sample 848, FIG. 3.
Assay type: cell-based
Excerpt: Patient-derived segment(s) corresponding to the HIV protease and reverse transcriptase coding regions were amplified by the reverse transcription-polymerase chain reaction method (RT-PCR) using viral RNA isolated from viral particles present in the plasma or serum of HIV-infected individuals as follows. Viral RNA was isolated from the plasma or serum using oligo-dT magnetic beads (Dynal Biotech, Oslo, Norway), followed by washing and elution of viral RNA. The RT-PCR protocol was divided into two steps. A retroviral reverse transcriptase (e.g. Moloney MuLV reverse transcriptase (Roche Molecular Systems, Inc., Branchburg, N.J.; Invitrogen, Carlsbad, Calif.), or avian myeloblastosis virus (AMV) reverse transcriptase (Roche Molecular Systems, Inc., Branchburg, N.J.), or) was used to copy viral RNA into cDNA. The cDNA was then amplified using a thermostable DNA polymerase (e.g. Taq (Roche Molecular Systems, Inc., Branchburg, N.J.), Tth (Roche Molecular Systems, Inc., Branchburg, N.J.), PRIMEZYME™ (isolated from Thermus brockianus, Biometra, Gottingen, Germany)) or a combination of thermostable polymerases as described for the performance of “long PCR” Barnes, W. M., 1994, Proc. Natl. Acad. Sci, USA 91, 2216-20) (e.g. Expand High Fidelity PCR System (Taq+Pwo), (Boehringer Mannheim. Indianapolis, Ind.); GENEAMP XL™ PCR kit (Tth+Vent), (Roche Molecular Systems, Inc., Branchburg, N.J.); or ADVANTAGE II®, Clontech, Palo Alto, Calif.)
Resistance test vectors incorporating the “test” patient-derived segments were constructed as described in U.S. Pat. No. 5,837,464 using an amplified DNA product of 1.5 kB prepared by RT-PCR using viral RNA as a template and oligonucleotides PDS Apa, PDS Age, PDS PCR6, Apa-gen, Apa-c, Apa-f, Age-gen, Age-a, RT-ad, RT-b, RT-c, RT-f, and/or RT-g as primers, followed by digestion with ApaI and AgeI or the isoschizomer PinA1. To ensure that the plasmid DNA corresponding to the resultant fitness test vector comprises a representative sample of the HIV viral quasi-species present in the serum of a given patient, many (>250) independent E. coli transformants obtained in the construction of a given fitness test vector are pooled and used for the preparation of plasmid DNA.
A packaging expression vector encoding an amphotrophic MuLV 4070A env gene product enables production in a resistance test vector host cell of resistance test vector viral particles which can efficiently infect human target cells. Resistance test vectors encoding all HIV genes with the exception of env were used to transfect a packaging host cell (once transfected the host cell is referred to as a fitness test vector host cell). The packaging expression vector which encodes the amphotrophic MuLV 4070A env gene product is used with the resistance test vector to enable production in the resistance test vector host cell of infectious pseudotyped resistance test vector viral particles.
Drug resistance tests performed with resistance test vectors were carried out using packaging host and target host cells consisting of the human embryonic kidney cell line 293. See U.S. Pat. No. 5,837,464.
Resistance tests were carried out with resistance test vectors using two host cell types. Resistance test vector viral particles were produced by a first host cell (the resistance test vector host cell) that was prepared by transfecting a packaging host cell with the resistance test vector and the packaging expression vector. The resistance test vector viral particles were then used to infect a second host cell (the target host cell) in which the expression of the indicator gene is measured.
The resistance test vectors containing a functional luciferase gene cassette were constructed as described above and host cells were transfected with the resistance test vector DNA. […]

| Compound | phenotypic resistance score of the viral population |
| --- | --- |
| CC(C)CN(C[C@@H](O)[C@H](Cc1ccccc1)NC(=O)O[C@H]1CCOC1)S(=O)(=O)c1ccc(N)cc1 [AMP, amprenavir] | resistant |
| CC(C)(C)NC(=O)[C@@H]1CN(Cc2cccnc2)CCN1C[C@@H](O)C[C@@H](Cc1ccccc1)C(=O)N[C@H]1c2ccccc2C[C@H]1O [IDV, indinavir] | resistant |
| Cc1cccc(C)c1OCC(=O)N[C@@H](Cc1ccccc1)[C@@H](O)C[C@H](Cc1ccccc1)NC(=O)[C@H](C(C)C)N1CCCNC1=O [LPV, lopinavir] | resistant |
| Cc1c(O)cccc1C(=O)N[C@@H](CSc1ccccc1)[C@H](O)CN1C[C@H]2CCCC[C@H]2C[C@H]1C(=O)NC(C)(C)C [NFV, nelfinavir] | resistant |
| CC(C)c1nc(CN(C)C(=O)N[C@H](C(=O)N[C@@H](Cc2ccccc2)C[C@H](O)[C@H](Cc2ccccc2)NC(=O)OCc2cncs2)C(C)C)cs1 [RTV, ritonavir] | resistant |
| CC(C)(C)NC(=O)[C@@H]1C[C@@H]2CCCC[C@@H]2CN1C[C@@H](O)[C@H](Cc1ccccc1)NC(=O)[C@H](CC(N)=O)NC(=O)c1ccc2ccccc2n1 [SQV, saquinavir] | resistant |
